According to US20210395210A1, “INHIBITION OF BACTERIAL CHAPERONIN SYSTEMS” (THE TRUSTEES OF INDIANA UNIVERSITY, priority 2018, published 2021):
Read-outs that look alike come from different tables or passages of the source.

Tests used:
[1] = test system: Acinetobacter baumannii (ATCC 19606); assay: Bacterial proliferation assay, A. baumannii; type: cell-based
From the text: (§1) Bacterial Strains: Enterococcus faecium—(Orla-Jensen) Schleifer and Kilpper-Balz strain NCTC 7171 (ATCC 19434); Drug sensitive Staphylococcus aureus—Rosenbranch strain Seattle 1945 (ATCC 25923); Methicillin resistant S. aureus (MRSA)—Rosenbach strain HPV107 (ATCC BAA-44); Klebsiella Pneumonia—(Schroeter) Trevisan strain NCTC 9633 (ATCC 13883); Acinetobacter baumannii—Bouvet and Grimont strain 2208 (ATCC 19606); Pseudomonas aeruginosa—(Schroeter) Migula strain NCTC 10332 (ATCC 10145); Enterobacter cloacae—E. cloacae, subsp. cloacae (Jordan) Hormaeche and Edwards strain CDC 442-68 (ATCC 13047).
(§2) Growth Media: All bacteria were grown in Brain Heart Infusion (BHI) broth/agar (Becton, Dickinson and Company). All liquid cultures were grown in BHI media supplemented with 25 mg/L Ca^2+ and 12.5 mg/L Mg^2+ to mimic free physiological concentrations of these cations. A 10 mg/mL Ca^2+ stock solution was prepared by dissolving 3.68 g of CaCl2.2H2O in 100 mL of deionized water, and a 10 mg/mL Mg^2+ stock solution was prepared by dissolving 8.36 g of MgCl2.6H2O in 100 mL deionized water. Both stock solutions were filter-sterilized using 0.2 μm pore size cellulose-acetate filters. 2.5 mL of the sterile 10 mg/mL Ca^2+ stock and 1.25 mL of the sterile 10 mg/mL Mg^2+ stock solutions were added per 1 L of autoclaved BHI medium to obtain 25 mg/L Ca^2+ and 12.5 mg/L Mg^2+ ions, respectively.
(§3) General Assay Protocol: Stock bacterial cultures were streaked onto BHI agar plates and grown overnight at 37° C. Fresh aliquots of broth were inoculated with single bacterial colonies and the cultures were grown overnight at 37° C. with shaking (240 rpm) in cation adjusted BHI media. The following morning, the overnight cultures were sub-cultured (1:5 dilution) into fresh aliquots of cation adjusted BHI media and grown at 37° C. for 1-2 hours with shaking. After 2 h, cultures were diluted into fresh media to achieve final OD600 readings of 0.017. Aliquots of these diluted cultures (30 μL) were added to clear, flat-bottom, 384-well polystyrene plates that were stamped with 0.5 μL of test compounds in 20 μL media. […] Plates were sealed with “Breathe Easy” oxygen permeable membranes (Diversified Biotech) and left to incubate at 37° C. without shaking (stagnant assay). OD600 nm readings were taken at either 6-8 h (S. aureus, MRSA, K. pneumonia, E. cloacae, and P. aeruginosa) or 24 h (E. faecium and A. baumannii). A second set of baseline control plates were prepared analogously, but without any bacteria added, to correct for possible compound absorbance and/or precipitation. Plates were then read at 600 nm using a Molecular Devices SpectraMax Plus384 microplate reader. […] Results presented represent the averages of EC50 values obtained from at quadriplicate (duplicate of duplicate) replicates.

native MDH = biological target: T1, native MDH (Sus scrofa, UniProt P00346); assay: Counter-screen for inhibition of native MDH enzymatic activity; type: biochemical, pig; details: for inhibition of native MDH enzymatic activity (in words): false-positive counter-screen
T1 construct: soluble pig heart MDH from Roche, product #10127248001; purchased Roche 10127248001; host or cells: pig heart
T1 sequence (P00346 25-338): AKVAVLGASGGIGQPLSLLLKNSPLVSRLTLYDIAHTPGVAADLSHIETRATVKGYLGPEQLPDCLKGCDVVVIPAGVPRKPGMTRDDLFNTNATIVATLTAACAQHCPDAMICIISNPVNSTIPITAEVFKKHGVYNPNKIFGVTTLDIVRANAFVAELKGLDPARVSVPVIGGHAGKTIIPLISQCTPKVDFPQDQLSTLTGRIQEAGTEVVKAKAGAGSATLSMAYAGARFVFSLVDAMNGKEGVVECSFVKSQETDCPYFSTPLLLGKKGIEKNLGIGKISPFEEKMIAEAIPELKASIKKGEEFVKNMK
Method: Reagent Preparations & Assay Protocol: This assay was performed as described above for the GroEL/ES-dMDH refolding assay; however, the assay protocol differed in the sequence of compound addition to the assay plates. The refolding reactions were allowed to proceed for 45 min at 37° C. in the absence of test compounds (complete refolding of MDH occurs), then quenched with the EDTA stock. Compounds were then pin-transferred into the plates after the EDTA quenching step; thus, compounds effects are only possible by inhibiting the fully-refolded MDH reporter substrate. […] A340 nm measurements were recorded at 0.5 minutes (start point) and at successive time points until the amount of NADH consumed reached ˜90% (end point, generally between 20-35 minutes). Compounds were tested in 8-point, 3-fold dilution series (62.5 μM to 29 nM during the reporter reaction) in clear, flat-bottom 384-well microtiter plates. DMSO was used as a negative control, and previously discovered native MDH inhibitors were used as positive controls. […] Results presented represent the averages of IC50 values obtained from at least quadriplicate (duplicate of duplicate) replicates.

[2] = test system: Enterococcus faecium (ATCC 19434); assay: Bacterial proliferation assay, E. faecium; type: cell-based
From the text: as §1, §2, §3

[3] = test system: Klebsiella Pneumonia (ATCC 13883); assay: Bacterial proliferation assay, K. pneumoniae; type: cell-based
From the text: as §1, §2, §3

[4] = test system: Methicillin resistant S. aureus (MRSA) (ATCC BAA-44); assay: Bacterial proliferation assay, MRSA; type: cell-based, Staphylococcus aureus; details: Staphylococcus aureus
From the text: as §1, §2, §3

[5] = ATCC19606, OD600 at 24 h, read-out: Bacterial Proliferation EC50 A. baumannii
[6] = ATCC19606, log of EC50 (μM scale), with standard deviation, read-out: log(EC50) Bacterial Proliferation Assay A. baumannii (converted)
[7] = log of IC50 (μM scale), with standard deviation, read-out: log(IC50) Native MDH Reporter (converted)
[8] = read-out: Biochemical Assay IC50 Native MDH Reporter
[9] = ATCC19434, OD600 at 24 h, read-out: Bacterial Proliferation EC50 E. faecium
[10] = ATCC19434, log of EC50 (μM scale), with standard deviation, read-out: log(EC50) Bacterial Proliferation Assay C. faecium (converted)
[11] = ATCC13883, OD600 at 6-8 h, read-out: Bacterial Proliferation EC50 K. pneumoniae
[12] = ATCC13883, log of EC50 (μM scale), with standard deviation, read-out: log(EC50) Bacterial Proliferation Assay K. pneumoniae (converted)
[13] = MRSA, OD600 at 6-8 h, read-out: Bacterial Proliferation EC50 S. aureus Resistant
[14] = MRSA, log of EC50 (μM scale), with standard deviation, read-out: log(EC50) Bacterial Proliferation Assay S. aureus Resistant (converted)
[15] = ATCC19606, 24 h, read-out: Bacterial Proliferation EC50 A. baumannii
[16] = ATCC19606, read-out: log(EC50) Bacterial Proliferation Assay A. baumannii (converted)
[17] = log of IC50 (μM scale), with standard deviation
[18] = ATCC19434, 24 h, read-out: Bacterial Proliferation EC50 E. faecium
[19] = ATCC19434, read-out: log(EC50) Bacterial Proliferation Assay C. faecium (converted)
[20] = ATCC13883, read-out: Bacterial Proliferation EC50 K. pneumoniae
[21] = ATCC13883, read-out: log(EC50) Bacterial Proliferation Assay K. pneumoniae (converted)
[22] = read-out: log(EC50) Bacterial Proliferation Assay S. aureus Resistant (converted)
[23] = read-out: Bacterial Proliferation EC50 S. aureus Resistant

Row | Compound | EC50 [1, 5] [µM] | EC50 [1, 6] [µM] | IC50 (native MDH; [7]) [µM] | IC50 (native MDH; [8]) [µM] | EC50 [2, 9] [µM] | EC50 [2, 10] [µM] | EC50 [3, 11] [µM] | EC50 [3, 12] [µM] | EC50 [4, 13] [µM] | EC50 [4, 14] [µM] | EC50 [1, 15] [µM] | EC50 [1, 16] [µM] | inhibition of native MDH enzymatic activity (in words) (native MDH) | log(IC50) Native MDH Reporter (native MDH; [17]) | EC50 [2, 18] [µM] | EC50 [2, 19] [µM] | EC50 [3, 20] [µM] | EC50 [3, 21] [µM] | EC50 [4, 22] [µM] | EC50 [4, 23] [µM]
1 | CC1(C)S[C@@H]2[C@H](NC(=O)[C@H](N)c3ccccc3)C(=O)N2[C@H]1C(=O)O [Ampicillin, ampicillin, reference compound] | > 100 | > 100 | > 63.1 | > 63 | 6.9 | 6.92 | > 100 | > 100 | > 100 | > 100 |  |  |  |  |  |  |  |  |  | 
2 | Cc1cc(C(C#N)c2ccc(Cl)cc2)c(Cl)cc1NC(=O)c1cc(I)cc(I)c1O (centres unmarked) [Closantel, closantel, reference compound] |  |  |  |  |  |  |  |  |  |  | > 100 | > 100 | inhibit native MDH | 0.79 ± 0.17 | 1.2 | 1.23 | > 100 | > 100 | 0.468 | 
3 | O=C(Nc1ccc(Sc2nc3ccccc3s2)c(Cl)c1)c1cc(Br)cc(Br)c1O [Compound 1, N-(4-(Benzo[d]thiazol-2-ylthio)-3-chlorophenyl)-3,5-dibromo-2-hydroxybenzamide] |  |  |  |  |  |  |  |  |  |  | 66 | 66.1 | inhibit native MDH | 0.83 ± 0.25 | 0.52 | 0.513 | > 100 | > 100 | 0.55 | 0.55
4 | O=C(Nc1ccc(Sc2nc3ccccc3s2)c(Cl)c1)c1cccc(Br)c1O [Compound 2, N-(4-(Benzo[d]thiazol-2-ylthio)-3-chlorophenyl)-3-bromo-2-hydroxybenzamide] |  |  | > 63.1 | > 63 |  |  |  |  |  |  | 2.9 | 2.88 | inactive against the reporter enzymes |  | 24 | 23.4 | > 100 | > 100 | 0.708 | 0.71
5 | O=C(Nc1ccc(Sc2nc3ccccc3s2)c(Cl)c1)c1cc(Br)ccc1O [Compound 3, N-(4-(Benzo[d]thiazol-2-ylthio)-3-chlorophenyl)-5-bromo-2-hydroxybenzamide] |  |  | > 63.1 | > 63 |  |  |  |  |  |  | > 100 | > 100 | inactive against the reporter enzymes |  | 15 | 14.8 | > 100 | > 100 | 0.17 | 0.17
6 | O=C(Nc1ccc(Sc2nc3ccccc3s2)c(Cl)c1)c1ccccc1O [Compound 4, N-(4-(Benzo[d]thiazol-2-ylthio)-3-chlorophenyl)-2-hydroxybenzamide] | > 100 | > 100 | > 63.1 | > 63 | 64 | 63.1 | > 100 | > 100 | 0.45 | 0.447 |  |  |  |  |  |  |  |  |  | 
7 | O=C(Nc1ccc(Sc2nc3ccccc3s2)cc1)c1cc(Br)cc(Br)c1O [Compound 5, N-(4-(Benzo[d]thiazol-2-ylthio)phenyl)-3,5-dibromo-2-hydroxybenzamide] |  |  |  |  |  |  |  |  |  |  | > 100 | > 100 | inhibit native MDH | 0.92 ± 0.21 | 0.88 | 0.891 | > 100 | > 100 | 0.525 | 0.52
8 | O=C(Nc1ccc(Sc2nc3ccccc3s2)cc1)c1cccc(Br)c1O [Compound 6, N-(4-(Benzo[d]thiazol-2-ylthio)phenyl)-3-bromo-2-hydroxybenzamide] |  |  | > 63.1 | > 63 |  |  |  |  |  |  | 12 | 11.5 | inactive against the reporter enzymes |  | 11 | 11.2 | > 100 | > 100 | 1.1 | 1.1
9 | O=C(Nc1ccc(Sc2nc3ccccc3s2)cc1)c1cc(Br)ccc1O [Compound 7, N-(4-(Benzo[d]thiazol-2-ylthio)phenyl)-5-bromo-2-hydroxybenzamide] |  |  | > 63.1 | > 63 |  |  |  |  |  |  | > 100 | > 100 | inactive against the reporter enzymes |  | 19 | 19.5 | > 100 | > 100 | 0.141 | 0.14
10 | O=C(Nc1ccc(Sc2nc3ccccc3s2)cc1)c1ccccc1O [Compound 8, N-(4-(Benzo[d]thiazol-2-ylthio)phenyl)-2-hydroxybenzamide] | > 100 | > 100 | > 63.1 | > 63 | 67 | 67.6 | > 100 | > 100 | 0.41 | 0.407 |  |  |  |  |  |  |  |  |  | 
11 | O=C(Nc1cccc(Cl)c1)c1cc(Br)cc(Br)c1O [Compound 9, 3,5-Dibromo-N-(3-chlorophenyl)-2-hydroxybenzamide] |  |  | 25.1 | 27 |  |  |  |  |  |  | 46 | 45.7 |  |  | 73 | 72.4 | 95 | 95.5 | 1.1 | 1.1
